For one series, the system named is RAW264.7 macrophages. Description: Inhibition of IFNγ-induced NO production (Griess reagent). The following applies: Mus musculus; RAW264.7, 20 ng/mL IFNγ, 2 h pre-treatment, 24 h. The class given is cell-based. On the procedure:
RAW264.7 macrophages were pre-treated with DMSO or drugs at various concentrations (nM) for 2 hours, and subsequently treated with 20 ng/ml IFNγ for 24 hours. NO concentration in media was determined using a Griess reagent system; cell viability was determined using WST-1 reagent. The betulinic acid derivatives are identified by their TP numbers, as shown herein and described in Example 5.
Nitric Oxide Production and Cell Viability. RAW264.7 macrophages were pre-treated with DMSO or drugs for 2 hours, and subsequently treated with recombinant mouse IFN-γ (Sigma) for 24 hours. NO concentration in media was determined using the Griess reagent system (Promega). Cell viability was determined using WST-1 reagent (Roche).
As usually defined, the IC50 is the concentration at which inhibition is half-maximal. `C=C(C)[C@@H]1CC[C@]2(C(=O)n3ccnc3)CC[C@]3(C)[C@H](CC[C@@H]4[C@@]5(C)C=C(C#N)C(=O)C(C)(C)[C@@H]5CC[C@]43C)[C@@H]12` [TP-292]: the IC50 lay in the range of 0.071 to 0.1 µM.
Same read-out and setting: then `C=C(C)[C@@H]1CC[C@]2(C(=O)NCC)CC[C@]3(C)[C@H](CCC4[C@@]5(C)C=C(C#N)C(=O)C(C)(C)[C@@H]5CC[C@]43C)[C@@H]12` (stereo partly shown) [TP-321, reference compound], with 0.088 µM; and `C=C(C)[C@@H]1CC[C@]2(C(=O)NCC(F)(F)F)CC[C@]3(C)[C@H](CC[C@@H]4[C@@]5(C)C=C(C#N)C(=O)C(C)(C)[C@@H]5CC[C@]43C)[C@@H]12` [TP-342, 2-Cyano-N-(2,2,2-trifluoroethyl)-3-oxolupa-1,20(29)-dien-28-amide], with 0.38 µM; and `C=C(C)[C@@H]1CC[C@]2(C(=O)NCC(F)F)CC[C@]3(C)[C@H](CC[C@@H]4[C@@]5(C)C=C(C#N)C(=O)C(C)(C)[C@@H]5CC[C@]43C)[C@@H]12` [TP-343, 2-Cyano-N-(2,2-difluoroethyl)-3-oxolupa-1,20(29)-dien-28-amide], with 0.13 µM.
Turning to `C=C(C)[C@@H]1CC[C@]2(C(=O)NCCF)CC[C@]3(C)[C@H](CC[C@@H]4[C@@]5(C)C=C(C#N)C(=O)C(C)(C)[C@@H]5CC[C@]43C)[C@@H]12` [TP-344, 2-Cyano-N-(2-fluoroethyl)-3-oxolupa-1,20(29)-dien-28-amide], the IC50 is 0.18 µM.
For the compound `C=C(C)[C@@H]1CC[C@]2(C#N)CC[C@]3(C)[C@H](CC[C@@H]4[C@@]5(C)C=C(C#N)C(=O)C(C)(C)[C@@H]5CC[C@]43C)[C@@H]12` [TP-345, 2-Cyano-3-oxolupa-1,20(29)-dien-28-onitrile], the IC50 fell in the range of 0.01 to 0.16 µM.

System in the next series: not listed separately
In words: TP levels in mouse brain after dietary dosing (LC/MS). The class given is in vivo. The following applies: CD-1 mice fed 200 or 400 mg/kg diet for 3.5 days; compared with TP-319. On the procedure:
CD-1 mice were fed either 200 or 400 mg/kg diet of either TP-319 or TP-500 for 3.5 days, and TP levels in the brains of the mice were analyzed by LC/MS. The structures of TP-319 and TP-500 are provided herein.
For `CC1(C)CC[C@]2(C(=O)NCC(F)(F)F)CC[C@]3(C)[C@H](C(=O)C=C4[C@@]5(C)C=C(C#N)C(=O)C(C)(C)[C@@H]5CC[C@]43C)[C@@H]2C1` [TP-500, reference compound], the “concentration in the brain” value is “significantly higher concentration in the brain than TP-319”.

The values above are taken from US8778990B2, “Betulinic acid derivatives and methods of use thereof” (Trustees of Dartmouth College, priority 2008, dated 2014).
